In patent publication US7618990B2, “Oxazolidone derivatives as PR modulators” (Wyeth, priority 2006, dated 2009):
pKi: −log10 of the molar value.

Columns and labels:
[1] = tested on: alkaline phosphatase activity in T47D cells; experiment: Effects of progestins and antiprogestins on alkaline phosphatase activity in T47D cells (antagonist mode); type: cell-based; conditions: Homo sapiens, in the presence of 1 nM progesterone, 24 h, read-out: T47D Alkaline Phosphatase Activity IC50 (nM) or % inhibition
[2] = target: T1, progesterone receptor (PR) (Homo sapiens, UniProt P06401); experiment: Progesterone receptor whole cell competition binding assay using T47D cells; conditions: intact T47D cells, 3 nM 3H-progesterone, 3 h at 37° C.
T1 construct: in live, intact (whole) cells using the human breast carcinoma T47D cell line; endogenous in cells; host or cells: T47D human breast carcinoma cells
T1 sequence (P06401 1-933): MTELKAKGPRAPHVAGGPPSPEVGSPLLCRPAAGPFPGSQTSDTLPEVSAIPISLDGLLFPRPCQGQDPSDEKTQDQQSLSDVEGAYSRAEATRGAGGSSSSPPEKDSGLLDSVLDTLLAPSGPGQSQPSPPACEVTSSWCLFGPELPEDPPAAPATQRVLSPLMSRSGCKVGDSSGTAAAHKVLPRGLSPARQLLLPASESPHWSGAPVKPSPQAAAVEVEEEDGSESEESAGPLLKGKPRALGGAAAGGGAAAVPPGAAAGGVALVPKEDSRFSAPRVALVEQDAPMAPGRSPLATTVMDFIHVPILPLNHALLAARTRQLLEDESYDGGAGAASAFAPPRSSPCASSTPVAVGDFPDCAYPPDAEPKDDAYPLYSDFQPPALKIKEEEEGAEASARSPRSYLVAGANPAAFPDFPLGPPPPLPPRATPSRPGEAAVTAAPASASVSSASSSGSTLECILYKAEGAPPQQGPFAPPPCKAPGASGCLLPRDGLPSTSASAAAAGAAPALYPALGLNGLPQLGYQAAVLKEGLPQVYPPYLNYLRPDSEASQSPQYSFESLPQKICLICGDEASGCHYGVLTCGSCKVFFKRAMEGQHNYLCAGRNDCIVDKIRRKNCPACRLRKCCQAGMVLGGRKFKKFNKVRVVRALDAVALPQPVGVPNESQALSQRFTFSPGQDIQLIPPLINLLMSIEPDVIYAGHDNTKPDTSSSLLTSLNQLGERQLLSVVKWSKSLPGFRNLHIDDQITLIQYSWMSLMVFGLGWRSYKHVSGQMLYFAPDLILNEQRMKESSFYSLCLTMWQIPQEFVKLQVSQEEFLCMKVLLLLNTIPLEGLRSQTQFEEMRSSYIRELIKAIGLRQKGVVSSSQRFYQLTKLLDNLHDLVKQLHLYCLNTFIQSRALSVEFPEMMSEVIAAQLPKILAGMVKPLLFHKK
Protocol: (2) Progesterone Receptor Whole Cell Competition Binding Assay Using T47D Cells
PURPOSE: To evaluate the progesterone receptor (PR) binding activity of progestins or antiprogestins in live, intact (whole) cells using the human breast carcinoma T47D cell line and ^3H-progesterone as the labeled ligand.
Culture Medium: • 5% RC: phenol red free DMEM:F12 (1:1) (GIBCO, BRL) supplemented with 5% (v/v) charcoal stripped fetal bovine serum (not heat-inactivated), 100 U/mL penicillin, 100 μg/mL streptomycin, and 2 mM the GlutaMax™ reagent (GIBCO, BRL). • 10% RC: Same as above supplemented with 10% (v/v) FBS. • ^3H-Progesterone: Perkin Elmer Life Science, cat# NET-381 (typically around 102 Ci/mmol)
T47D cells were maintained in 10% RC media at 37° C. in a 5% CO2/humidified atmosphere and were split twice weekly for proper response. Cells were plated in 10% RC the day before binding assay at 50,000 cells per well in the white, clear bottom plates purchased through VWR or Perkin Elmer.
Cells plated the day prior to the assay in white clear bottom plates were used. A master compound plate was set up containing control and test compounds at 20× final desired concentration for the competition binding. A typical dose range of 20× concentrations were (in nM); 200,000; 20,000; 6000; 2000; 600; 200; 20; and 2. Final concentrations were (in nM); 10,000; 1000; 300; 100; 30; 10; 1; 0.1. Control compounds were typically run 10-fold lower than this and include a 0, or vehicle, control well. A stock of 60 nM ^3H-progesterone (20×) were also prepared at a volume needed of 10 μL per well.
Media on cells were replaced with 180 μL of 5% RC. Ten microliters (10 μL) of 60 nM ^3H-progesterone (for final concentration of 3 nM) was added immediately, followed by 10 μL of 20× test or control compounds. Compounds were incubated for 3 h at 37° C. (A time course study found no difference between 2 and 4 h incubation.)
Following incubation, media was carefully removed and cells were washed 3× with 200 μL 5% RC each wash. Fifty microliters of liquid scintillation cocktail was added and the plates were shaken vigorously for a minimum of 15 min. Plates were read on the Wallac Microbeta® 1450 plate reader.
Square root-transformed data were used for analysis of variance and calculation of IC50. SAS software (SAS Institute, Inc.) was used for all the statistical analysis.
Progesterone was used as a reference progestin and RU486 as a reference antiprogestin.

Structure (SMILES)	melting point [°C]	IC50 [1] [nM]	pKi [2]
CC1CN(c2nc(-c3ccc(C#N)cc3)cs2)C(=O)O1 (stereo not drawn) [Example 41, 4-[2-(5-Methyl-2-oxo-1,3-oxazolidin-3-yl)-1,3-thiazol-4-yl]benzonitrile]	214 to 216	48.3	6.55
CCC1CN(c2nc(-c3ccc(C#N)cc3)cs2)C(=O)O1 (stereo not drawn) [Example 42, 4-[2-(5-Ethyl-2-oxo-1,3-oxazolidin-3-yl)-1,3-thiazol-4-yl]benzonitrile]	168 to 170	117	6.15
CCCCC1COC(=O)N1c1nc(-c2ccc(C#N)cc2)cs1 (stereo not drawn) [Example 48, 4-[2-(4-Butyl-2-oxo-1,3-oxazolidin-3-yl)-1,3-thiazol-4-yl]benzonitrile]	134 to 137	23.3	6.89
CCC1COC(=O)N1c1nc(-c2ccc(Br)cc2)cs1 (stereo not drawn) [Example 49, 3-[4-(4-Bromophenyl)-1,3-thiazol-2-yl]-4-ethyl-1,3-oxazolidin-2-one]	148.5	39	7.17
O=C1OCC(C(F)(F)F)N1c1nc(-c2ccc(Br)cc2)cs1 (stereo not drawn) [Example 64, 3-[4-(4-Bromophenyl)-1,3-thiazol-2-yl]-4-(trifluoromethyl)-1,3-oxazolidin-2-one]	154 to 156	291	6.63
N#Cc1ccc(-c2csc(N3C(=O)OC[C@H]3C(F)(F)F)n2)cc1 [Example 65, 4-{2-[(4S)-2-Oxo-4-(trifluoromethyl)-1,3-oxazolidin-3-yl]-1,3-thiazol-4-yl}benzonitrile]	208 to 209	43.2	7.22
N#Cc1ccc(-c2csc(N3C(=O)OC[C@@H]3C(F)(F)F)n2)cc1 [Example 66, 4-{2-[(4R)-2-oxo-4-(trifluoromethyl)-1,3-oxazolidin-3-yl]-1,3-thiazol-4-yl}benzonitrile]	208 to 209	482	6.67
O=C1NCCN1c1nc(-c2ccc(Br)cc2)cs1 [Example 75, 1-[4-(4-Bromophenyl)-1,3-thiazol-2-yl]imidazolidin-2-one]	230 to 233	1070	5.68

These reach a lower IC50 [1]. Values come first.

melting point [°C]	IC50 [1] [nM]	pKi [2]	Structure (SMILES)
148 to 150	21.4	7.50	O=C1OC[C@@H](CF)N1c1nc(-c2ccc(Br)cc2)cs1 [Example 73, (4S)-3-[4-(4-Bromophenyl)-1,3-thiazol-2-yl]-4-(fluoromethyl)-1,3-oxazolidin-2-one]
195 to 196	19.8	7.35	N#Cc1ccc(-c2csc(N3C(=O)OC[C@H]3CF)n2)cc1 [Example 74, 4-{2-[(4S)-4-(Fluoromethyl)-2-oxo-1,3-oxazolidin-3-yl]-1,3-thiazol-4-yl}benzonitrile]
189 to 190	17.7	7.44	CC1COC(=O)N1c1nc(-c2ccc(Br)cc2)cs1 (stereo not drawn) [Example 50, 3-[4-(4-Bromophenyl)-1,3-thiazol-2-yl]-4-methyl-1,3-oxazolidin-2-one]
215 to 216	16.1	7.37	CC1COC(=O)N1c1nc(-c2ccc(C#N)cc2)cs1 (stereo not drawn) [Example 51, 4-[2-(4-Methyl-2-oxo-1,3-oxazolidin-3-yl)-1,3-thiazol-4-yl]benzonitrile]
132 to 134	9.9	7.38	CCCC1COC(=O)N1c1nc(-c2ccc(C#N)cc2)cs1 (stereo not drawn) [Example 40, 4-[2-(2-Oxo-4-propyl-1,3-oxazolidin-3-yl)-1,3-thiazol-4-yl]benzonitrile]
177 to 178	4	7.79	CC1(C)COC(=O)N1c1nc(-c2ccc(C#N)cc2)c(F)s1 [Example 58, 4-[2-(4,4-dimethyl-2-oxo-1,3-oxazolidin-3-yl)-5-fluoro-1,3-thiazol-4-yl]benzonitrile]
